# Laboratory results taken from patent publication US8551956B2, “Compositions containing peptides with non-natural amino acids and methods of use” (Avon Products, Inc., priority 2006, dated 2013).
# Tested on: Fibronectin
# Test: Stimulation of fibronectin production in Normal Human Dermal Fibroblasts-Adult, competitive inhibition ELISA of conditioned medium
# Assay type: cell-based
# Settings: in vitro, concentration not given
# Protocol: Normal Human Dermal Fibroblasts-Adult (Cascade Biologics) were cultured in 12-well tissue culture treated plates and treated for 72 hours in the presence or absence of test actives. Following incubation, the conditioned medium from each treatment was collected in a 1.7 mL microcentrifuge tube and frozen at −80° C. for subsequent analysis. The assay was in the format of a competitive inhibition ELISA.
# Human fibronectin was pre-coated on the wells except for one row, which served as a reference. Standards and samples were pre-incubated with polyclonal rabbit antibody to human fibronectin. The polyclonal antibody was bound to the fibronectin in the standard dilutions, and in the sample, if present. The mixture was then transferred to the human fibronectin-coated plate. Free rabbit anti-human fibronectin was bound to the fibronectin on the plate. Goat anti-rabbit IgG HRP-conjugate reacted with bound rabbit anti-fibronectin. When HRP substrate was added, a blue color developed. The reaction was stopped by the addition of an acid, changing the color to yellow. This color was quantitated using a microplate reader set at 450 nm. The intensity of the color was inversely proportional to the amount of fibronectin in the original sample.
structure (smiles),measurement,value
NCCCC[C@H](N)C(=O)NCCCCC(=O)NCCCC[C@H](N)C(=O)O [KavaK],"Fibronectin production, more compared to untreated control fibroblasts",28%
